Laboratory results as given in patent publication US8912169B2, “Beta-lactamase inhibitors” (VenatoRx Pharmaceuticals, Inc., priority 2012, dated 2014).
Where two headings read alike, the source gives them in different places.

What was measured:
KPC-2 = target: T1, KPC-2 (Klebsiella pneumoniae, UniProt Q9F663); assay: β-lactamase enzyme inhibition, KPC-2; format: biochemical; conditions: substrate imipenem, 300 nm; read-out: Class A KPC-2 IC50
T1 construct: made in house; host or cells: E. coli BL21(DE3)
Outline: (§1)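 Native untagged β-lactamases expressed in E. coli BL21(DE3) and purified, then pre-incubated with inhibitor 15 min at 37 °C. Hydrolysis was followed by absorbance: 100 μM nitrocefin at 486 nm for p99 AmpC and OXA-1; imipenem at 300 nm for KPC-2; cefotaxime at 260 nm for SHV-5. IC50 from initial-rate inhibition versus uninhibited controls.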

VIM-2 = target: T2, VIM-2 (Escherichia coli, UniProt Q5U7L7); assay: β-lactamase enzyme inhibition, VIM-2; format: biochemical; conditions: substrate Nitrocefin 100 μM, 486 nm; read-out: Class B VIM-2 IC50
T2 construct: made in house; host or cells: E. coli BL21(DE3)
Outline: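 Purified VIM-2 (Q sepharose, 50 mM Hepes pH 7.5, >90% purity) preincubated with inhibitor 15 min at 37° C, then nitrocefin added at 100 μM final. Hydrolysis followed at 486 nm for 10 min; IC50 from initial rates versus inhibitor-free control wells.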

OXA-1 = target: T3, OXA-1 (Escherichia coli, UniProt P13661); assay: β-lactamase enzyme inhibition, OXA-1; format: biochemical; conditions: substrate Nitrocefin 100 μM, 486 nm; read-out: Class D OXA-1 IC50
T3 construct: made in house; host or cells: E. coli BL21(DE3)
Outline: as §1

SHV-5 = target: T4, SHV-5 (Klebsiella pneumoniae, UniProt P0A3M1); assay: β-lactamase enzyme inhibition, SHV-5; format: biochemical
T4 construct: made in house; host or cells: E. coli BL21(DE3)
Outline: as §1

p99 AmpC = target: T5, p99 AmpC (Enterobacter cloacae, UniProt P05364); assay: β-lactamase enzyme inhibition, p99 AmpC; format: biochemical
T5 construct: made in house; host or cells: E. coli BL21(DE3)
Outline: as §1

P. aerug. Ps296 VIM-2 = assay: broth microdilution MIC, P. aeruginosa VIM-2; format: cell-based; conditions: for MIC of exemplary compounds in presence of fixed β-lactams, P. aerug. Ps296 VIM-2: Fixed Mero 4 μg/mL
Source text: (§2) To determine the ability of test compounds to potentiate the inhibition of the growth of bacterial strains that produce beta-lactamase enzymes, classic cell based broth microdilution MIC assays were employed. Six bacteria strains producing beta-lactamase enzymes were used: E. coli expressing the Class A Extended Spectrum Beta-Lactamase (ESBL) CTX-M-15, E. cloacae expressing the Class C P99, K. pneumoniae expressing the Class A carbapenemase KPC-3, P. aeruginosa expressing the Class B carbapenemase VIM-2, K. pneumoniae expressing the class A carbapenemase KPC-2 and the class B carbapenemase VIM-4, and S. aureus producing the Class A penicillinase PC-1. The assay was conducted in Cation Adjusted Mueller Hinton Broth (CAMHB, BD #212322, BD Diagnostic Systems, Sparks, Md.). Bacteria strains were grown for 3-5 hours in CAMBH broth. Test compounds were added to a microtiter plate in 2-fold serial dilutions in CAMHB in a final concentration range of 32 μg/mL to 0.25 μg/ml. An overlay of CAMHB containing a Beta-lactam was added to the compounds at a final static concentration of 4 μg/ml. […] In addition to the titration of test compounds the MICs of a panel of control beta-lactams is also tested to ensure the strains are behaving consistently from test to test. Once the test compound and antibiotics are added the plates can be inoculated according to CLSI broth microdilution method. After inoculation the plates are incubated for 16-20 hours at 37° C. then the Minimal Inhibitory Concentration (MIC) of the test compound is determined visually.
Using the methodology described above in EXAMPLE III, exemplary compounds for Formula I or Formula Ia were evaluated for their ability to inhibit the growth of β-lactamase producing bacteria in the presence of a β-lactam antibiotic.
Representative results are shown in Table 4 where A represents an MIC of the fixed β-lactam antibiotic in the presence of >32 μg/mL of a β-lactamase inhibitor of exemplary compounds, B represents the MIC in the presence of between 8 and 32 μg/mL of a β-lactamase inhibitor of exemplary compounds, and C represents the MIC in the presence of ≦4 μg/mL of a β-lactamase inhibitor of exemplary compounds. NT=Not Tested.

K.P. 156319 KPC-3 = assay: broth microdilution MIC, K. pneumoniae KPC-3; format: cell-based; conditions: Fixed Mero 4 μg/mL
Source text: as §2
(§3) Using the methodology described above in EXAMPLE III, exemplary compounds for Formula I or Formula Ia were evaluated for their ability to inhibit the growth of β-lactamase producing bacteria in the presence of a β-lactam antibiotic. […]

E. cl. 144200 p99 AmpC = assay: broth microdilution MIC, E. cloacae P99; format: cell-based; conditions: Fixed CAZ 4 μg/mL
Source text: as §2, §3

K.P. A-1797 KPC-2 VIM-4 = assay: broth microdilution MIC, K. pneumoniae KPC-2 and VIM-4; format: cell-based; conditions: Fixed Mero 4 μg/mL
Source text: as §2, §3

E. coli ESBL4 CTX-M-15 = assay: broth microdilution MIC, E. coli CTX-M-15; format: cell-based; conditions: Fixed CAZ 4 μg/mL
Source text: as §2, §3

[1] = substrate Cefotaxime, 260 nm, read-out: Class A SHV-5 IC50
[2] = substrate Nitrocefin 100 μM, 486 nm, read-out: Class C AmpC IC50

CCNCCN[C@H]1CC[C@H](CC(=O)N[C@H]2Cc3cccc(C(=O)O)c3OB2O)CC1 [Example 78, (R)-3-(2-(trans-4-(2-(ethylamino)ethylamino)cyclohexyl)acetamido)-2-hydroxy-3,4-dihydro-2H-benzo[e][1,2]oxaborinine-8-carboxylic acid]
IC50 (KPC-2): < 100 nM | IC50 (VIM-2): < 100 nM | IC50 (OXA-1): < 100 nM | IC50 (SHV-5): < 100 nM | IC50 (p99 AmpC): < 100 nM

CN(C)CCN[C@H]1CC[C@H](CC(=O)N[C@H]2Cc3cccc(C(=O)O)c3OB2O)CC1 [Example 79, (R)-3-(2-(trans-4-(2-(dimethylamino)ethylamino)cyclohexyl)acetamido)-2-hydroxy-3,4-dihydro-2H-benzo[e][1,2]oxaborinine-8-carboxylic acid]
IC50 (KPC-2): < 100 nM | IC50 (VIM-2): < 100 nM | IC50 (OXA-1): < 100 nM | IC50 (SHV-5): < 100 nM | IC50 (p99 AmpC): < 100 nM

C[C@@H](O)[C@H]1C(=O)N2C(C(=O)O)=C(S[C@@H]3CN[C@H](C(=O)N(C)C)C3)[C@H](C)[C@H]12 [Meropenem, reference compound]
MIC (P. aerug. Ps296 VIM-2; Pseudomonas aeruginosa, partner antibiotic alone, P. aeruginosa expressing VIM-2): 16 µg/mL

(3R)-3-[[2-[(1S,3S,4S)-3,4-bis(aminomethyl)cyclohexyl]acetyl]amino]-2-hydroxy-3,4-dihydro-1,2-benzoxaborinine-8-carboxylic acid and (3R)-3-[[2-[(1R,3R,4R)-3,4-bis(aminomethyl)cyclohexyl]acetyl]amino]-2-hydroxy-3,4-dihydro-1,2-benzoxaborinine-8-carboxylic acid [Example 18]
MIC of exemplary compounds in presence of fixed β-lactams, K.P. 156319 KPC-3 (K.P. 156319 KPC-3): C (C represents the MIC in the presence of ≦4 μg/mL of a β-lactamase inhibitor of exemplary compounds) | IC50 (KPC-2): < 100 nM | MIC of exemplary compounds in presence of fixed β-lactams, E. cl. 144200 p99 AmpC (E. cl. 144200 p99 AmpC): C (C represents the MIC in the presence of ≦4 μg/mL of a β-lactamase inhibitor of exemplary compounds) | IC50 (VIM-2): < 100 nM | IC50 (OXA-1): < 100 nM | MIC of exemplary compounds in presence of fixed β-lactams, K.P. A-1797 KPC-2 VIM-4 (K.P. A-1797 KPC-2 VIM-4): B (B represents the MIC in the presence of between 8 and 32 μg/mL of a β-lactamase inhibitor of exemplary compounds) | IC50 (SHV-5; [1]): < 100 nM | MIC of exemplary compounds in presence of fixed β-lactams, P. aerug. Ps296 VIM-2 (P. aerug. Ps296 VIM-2): C (C represents the MIC in the presence of ≦4 μg/mL of a β-lactamase inhibitor of exemplary compounds) | MIC of exemplary compounds in presence of fixed β-lactams, E. coli ESBL4 CTX-M-15 (E. coli ESBL4 CTX-M-15): C (C represents the MIC in the presence of ≦4 μg/mL of a β-lactamase inhibitor of exemplary compounds) | IC50 (p99 AmpC; [2]): < 100 nM

(3R)-3-[[(1S,3S,4S)-3,4-diaminocyclohexanecarbonyl]amino]-2-hydroxy-3,4-dihydro-1,2-benzoxaborinine-8-carboxylic acid and (3R)-3-[[(1R,3R,4R)-3,4-diaminocyclohexanecarbonyl]amino]-2-hydroxy-3,4-dihydro-1,2-benzoxaborinine-8-carboxylic acid [Example 20]
MIC of exemplary compounds in presence of fixed β-lactams, K.P. 156319 KPC-3 (K.P. 156319 KPC-3): C (C represents the MIC in the presence of ≦4 μg/mL of a β-lactamase inhibitor of exemplary compounds) | IC50 (KPC-2): 100 to 1000 nM | MIC of exemplary compounds in presence of fixed β-lactams, E. cl. 144200 p99 AmpC (E. cl. 144200 p99 AmpC): C (C represents the MIC in the presence of ≦4 μg/mL of a β-lactamase inhibitor of exemplary compounds) | IC50 (VIM-2): < 100 nM | IC50 (OXA-1): 100 to 1000 nM | MIC of exemplary compounds in presence of fixed β-lactams, K.P. A-1797 KPC-2 VIM-4 (K.P. A-1797 KPC-2 VIM-4): B (B represents the MIC in the presence of between 8 and 32 μg/mL of a β-lactamase inhibitor of exemplary compounds) | IC50 (SHV-5; [1]): 1000 to 10000 nM | MIC of exemplary compounds in presence of fixed β-lactams, P. aerug. Ps296 VIM-2 (P. aerug. Ps296 VIM-2): C (C represents the MIC in the presence of ≦4 μg/mL of a β-lactamase inhibitor of exemplary compounds) | MIC of exemplary compounds in presence of fixed β-lactams, E. coli ESBL4 CTX-M-15 (E. coli ESBL4 CTX-M-15): C (C represents the MIC in the presence of ≦4 μg/mL of a β-lactamase inhibitor of exemplary compounds) | IC50 (p99 AmpC; [2]): < 100 nM

(3R)-3-[[(3S,4S)-3,4-diaminocyclopentanecarbonyl]amino]-2-hydroxy-3,4-dihydro-1,2-benzoxaborinine-8-carboxylic acid and (3R)-3-[[(3R,4R)-3,4-diaminocyclopentanecarbonyl]amino]-2-hydroxy-3,4-dihydro-1,2-benzoxaborinine-8-carboxylic acid [Example 19]
MIC of exemplary compounds in presence of fixed β-lactams, K.P. 156319 KPC-3 (K.P. 156319 KPC-3): C (C represents the MIC in the presence of ≦4 μg/mL of a β-lactamase inhibitor of exemplary compounds) | IC50 (KPC-2): < 100 nM | MIC of exemplary compounds in presence of fixed β-lactams, E. cl. 144200 p99 AmpC (E. cl. 144200 p99 AmpC): C (C represents the MIC in the presence of ≦4 μg/mL of a β-lactamase inhibitor of exemplary compounds) | IC50 (VIM-2): < 100 nM | IC50 (OXA-1): < 100 nM | MIC of exemplary compounds in presence of fixed β-lactams, K.P. A-1797 KPC-2 VIM-4 (K.P. A-1797 KPC-2 VIM-4): C (C represents the MIC in the presence of ≦4 μg/mL of a β-lactamase inhibitor of exemplary compounds) | IC50 (SHV-5; [1]): 100 to 1000 nM | MIC of exemplary compounds in presence of fixed β-lactams, P. aerug. Ps296 VIM-2 (P. aerug. Ps296 VIM-2): C (C represents the MIC in the presence of ≦4 μg/mL of a β-lactamase inhibitor of exemplary compounds) | MIC of exemplary compounds in presence of fixed β-lactams, E. coli ESBL4 CTX-M-15 (E. coli ESBL4 CTX-M-15): C (C represents the MIC in the presence of ≦4 μg/mL of a β-lactamase inhibitor of exemplary compounds) | IC50 (p99 AmpC; [2]): < 100 nM
